For series [1] the following is noted: cited from earlier work; for risk of nephrotoxicity: adults, ref [30].
Series [2] can be described thus: Vancomycin population pharmacokinetic model (one-compartment, Monolix) from serum concentrations in VLBW neonates.
Method: Data were retrieved for VLBW neonates (0–30 days old) who were admitted to the NICU and received vancomycin for proven or suspected MRSA or MRCONS infections. Patients were included if they received vancomycin for more than 48 h and had at least one vancomycin serum trough concentration measurement in a steady state. The collected data included PNA, PMA, weight, Scr, vancomycin dose, frequency and concentrations. […] Subsequent dose adjustments were guided by the vancomycin trough concentrations. In King Saud University Medical City, both vancomycin peak and trough concentrations were obtained for therapeutic drug monitoring. In all other hospitals, the practice was to collect trough concentrations only. Peak samples were collected 1 h after the end of infusions, and trough concentrations were collected 30 min before the next dose in a steady state. Exclusion criteria were: renal failure, receiving hemodialysis, missing dosing information and those sampled before the steady state were excluded.
One hospital used a chemiluminescent microparticle immunoassay with an Architect i4000SR immunoassay analyzer (Abbott), two hospitals used the kinetic interaction of microparticles in solution (KIMS) with a Cobas c system (Roche/Hitachi), and three hospitals used the homogeneous particle-enhanced turbidimetric inhibition immunoassay (PETINIA) with an Alinity c analyzer (Abbott). The assay range for the Architect immunoassay is from 0.5 to 83 µg/ml, the range for the KIMS assay is 4–80 µg/ml, and the range for the PETINIA is 1.4–100 µg/ml. For the Scr assays, four centers used the Jaffe method, and two centers used the enzymatic method.
We split the data randomly into the training (70%) and validation (30%) data sets. […] Pharmacokinetic modeling was performed using the Monolix software (2020R1) with the stochastic approximation expectation maximization algorithm.
First, we developed a structural model for vancomycin. This included testing one- and two-compartment models with linear and nonlinear elimination. For the between-subject variability in pharmacokinetic parameters, we used the following lognormal distribution: pi=p.exp⁡(ηi), where pi is the individual pharmacokinetic estimate for the i^th individual, p is the median value of the pharmacokinetic parameter, and ηi is the standard deviation for the i^th individual with a mean of 0 and variance ω^2. For residual unexplained variability, we tested different statistical models, including the constant, proportional, and combined error models. As different assays were used for vancomycin, we tested having different residual variability models accordingly.
After we developed the base model, we evaluated the effect of covariates on pharmacokinetic parameters. […]
The conditions of series [3]: model from 10 VLBW neonates, 10 mg/kg every 8 h, ref Kato et al. [16]; cited from earlier work. An excerpt:
The most commonly used tertiary dosing references present vancomycin dosing recommendations for neonates considering only one or two of these variables. For example, Micromedex NeoFax recommends dosing based on a combination of PMA and PNA, pediatric and neonatal Lexicomp recommends two different dosing strategies, one based on a combination of PMA and PNA and the other based on a combination of GA and Scr (Table 1). As a result, the daily doses can differ widely by up to 50% between these studies. Studies have reported that the probability of achieving vancomycin therapeutic targets in neonat ... || To date, only two studies with very small sample size have evaluated the optimal vancomycin dosing in VLBW neonates ([16], [17]). Kato et al. ([16]) recommended a vancomycin dose of 10 mg/kg every 8 h as the initial dosage regimen for vancomycin in VLBW neonates. This model predicted vancomycin therapeutic target achievement in 86.7% of neonates. However, they developed their model based on data from only 10 VLBW neonates, and the simulations were not divided into categories according to Scr and PMA. The major difference between our findings and the Kato et al. model is that for most groups, e ...

Read-outs that look alike come from different tables or passages of the source.

For the molecule `CN[C@H](CC(C)C)C(=O)N[C@H]1C(=O)N[C@@H](CC(N)=O)C(=O)N[C@H]2C(=O)N[C@H]3C(=O)N[C@H](C(=O)N[C@H](C(=O)O)c4cc(O)cc(O)c4-c4cc3ccc4O)[C@H](O)c3ccc(c(Cl)c3)Oc3cc2cc(c3O[C@@H]2O[C@H](CO)[C@@H](O)[C@H](O)[C@H]2O[C@H]2C[C@](C)(N)[C@H](O)[C@H](C)O2)Oc2ccc(cc2Cl)[C@H]1O` [vancomycin], the “probable vancomycin-related nephrotoxicity, neonates affected” value in series [1] (VLBW neonates, ref Madigan et al. [41]) is listed as “two out of 57”. Moreover, the risk of nephrotoxicity result in series [1] (troughs >20 µg/ml) is on record as “approximately 30%”. For the same molecule, the risk of nephrotoxicity entry in series [1] (troughs between 15 and 20 µg/ml) was “approximately 15%”. In addition, the “nephrotoxicity, patients” value in series [1] (infants, ref Viel-Thériault et al. [42]) was 6%. In addition, the “subjects who developed nephrotoxicity” value in series [1] (neonatal intensive care unit, ref Bhargava et al. [39]) was “three out of 110”. In series [1] (neonates, ref Tang et al. [43]), the “AUC0−24 cutoff as a predictor of nephrotoxicity” value was more than 485 µg·h/mL and the “neonates who developed nephrotoxicity” value is recorded as “seven out of 182”. The “typical Cl value” in series [2] (VLBW neonate weighing 0.93 kg, PMA 26 weeks, Scr 0.6 mg/dl) came out at 0.09 L/h. Moreover, the “TMA50 (PMA at which CL is 50% of the mature value)” value in series [2] (final model) was determined as 26.3 weeks. Also, the “Cl (total body clearance), estimate” value in series [2] (final population PK model, VLBW neonates, training data set N = 162) is 0.09 L/h. For the same molecule, the “V (volume of distribution), estimate” value in series [2] (final population PK model, VLBW neonates, training data set N = 162, typical value at 0.93 kg) was 0.81 L. Moreover, the “predicted vancomycin therapeutic target achievement” value in series [3] is 86.7%.

These data come from publication PMC10101232, “Population pharmacokinetics of vancomycin in very low birth weight neonates” (Frontiers in Pediatrics, 2023).
